Measured values taken from patent US12286657B2, “Methods and compositions” (United Kingdom Research and Innovation, priority 2018, dated 2025).

How the values were obtained:
[1] = test system: E. coli; assay: LC-MS based amino acid uptake assay (intracellular concentration of DAP derivatives); details: addition of 1 mM 6 to cell media
[2] = storage and handling of DAP amino acid 6-TFA; assay type: physicochemical
Excerpt: Storage: The dry sample of DAP amino acid 6-TFA was stored in air-tight dark glass vials in a cold, dry and dark environment and was stable for over 3 years without decomposition.
It is noteworthy that the vial containing 6-TFA taken out from the fridge or freezer was always allowed to warm to r.t. prior to opening and handling.

[3] = test system: TEDAP (Vlm TE, serine 2463 replaced by DAP); assay: depsipeptidyl-TE complex formation with TEDAP (LC-ESI-MS); assay type: biochemical, Streptomyces tsusimaensis; details: incubation with TEDAP
[4] = free amino acid (lysine sidechain; beta amino group of DAP); cited from earlier work
[5] = test system: PCC1RS/tRNACUA and PCC2RS/tRNACUA pairs; assay: amber codon suppression in reporter genes with photocaged-cysteine synthetase pairs; assay type: cell-based; details: cells provided with 3 or 4 and the relevant pair
Excerpt: Compounds 3 and 4 contain a conservative SH to NH2 substitution relative to photocaged cysteine derivatives that we have previously incorporated into proteins using the PCC1RS/tRNACUA and PCC2RS/tRNACUA pairs, respectively^32. (These pairs were derived from the pyrrolysyl-tRNA synthetase/tRNACUA pair).

[6] = test system: TEDAP; assay: LC-ESI-MS analysis of Vlm TE reaction products, TEDAP; assay type: biochemical, Streptomyces tsusimaensis; details: incubation with TEDAP
Method: (§1) Extracted ion chromatograms (EICs) from HR-LC-ESI-MS of reactions of tetradepsipeptidyl-SNAC 7 (1.7 mM) and Vlm TE (6.5 μM). a, TEwt produces valinomycin as its major product. […] See Supplementary Table 2 for accurate mass analysis and deviations from calculated m/z values of each compound.
(§2) Purified TEwt or TEDAP at 0.2 mg mL-1 (6.5 μM) was incubated with tetradepsipeptidyl-SNAC 7 (1.7 mM), or a mix of tetradepsipeptidyl-SNAC 7 and deoxytetradepsipeptidyl-SNAC 8 (1.7 mM each) in buffer T. Samples were incubated at room temperature for 24 hours, and then quenched with one volume of 0.1% formic acid in acetonitrile. Next, samples were centrifuged at 20,000 g, flash frozen in liquid nitrogen and stored at −80° C. before HPLC analysis. For HPLC-MS analysis, frozen samples were thawed at room temperature, vortexed and clarified by centrifugation at 20,000 g before injection. HR-LC-ESI-MS was performed at the Mass Spectroscopy Facility (Department of Chemistry, McGill University) with an Agilent XDB-C8 (5 μm, 4.6×150 mm) column in a Dionex Ultimate 3000 UHPLC system coupled to a Bruker maXis impact QTOF mass spectrometer in positive ESI mode. […] Data was analyzed using the Bruker DataAnalysis software and the SmartFormula tool (Bruker).

[7] = test system: Vlm TEwt; assay: LC-ESI-MS analysis of Vlm TE reaction products, TEwt; assay type: biochemical, Streptomyces tsusimaensis; details: incubation with Vlm TEwt
Method: as §1, §2

[8] = test system: HA-tagged Ub; assay: ubiquitination test with UBE2L3 variants; assay type: biochemical; details: for E2-Ub complex formation: 0.2 μM E1, HA-tagged Ub, E2 loading buffer; for redox sensitivity of complex with Ub: presence of ß-mercaptoethanol
Method: Ubiquitination test with UBE2L3(C86DAP). […] Ub-UBE2L3: Thioester-linked (UBE2L3[wt]) or isopeptidelinked (UBE2L3[C86DAP]) E2-Ub complex.
In order to test whether UBE2L3(C86DAP5), which had been irradiated with UV light and incubated overnight at 37° C., could be charged with Ub, a reaction containing 0.2 μM E1 and HA-tagged Ub in E2 loading buffer was set up. Each reaction (positive control [wt], negative control [C86A] and [C86DAP]) was performed with and without Ub (see FIG. 23).

[9] = test system: Ub-tev-His6; assay: reactions of TEV with Ubtev (SDS-PAGE, western blot); assay type: biochemical; details: SDS-PAGE and western blot
Excerpt: The use of TEV(wt) results in cleavage of the TEV cleavage sequence. The use of TEV(C151A) results in minimal cleavage. The presence of DAP in the active site of TEV results in the presence of a new band in the coomassie gel, representing the isopeptide-linked TEV(C151DAP)-Ub complex (left). αUb and αStrep western blots of the reactions confirm the identity of the complex (TEV constructs contain a Strep tag). b, Tandem mass spectrometry of isopeptide-linked TEV(C151DAP)-Ub complex. Tandem mass spectrometry unambiguously identifies the DAP modification at the desired site and the expected tev-Gly-Gly modification on the residue, consistent with Ub trapping on DAP.
Tryptic MS/MS of the slower mobility band identifies the isopeptide linkage between DAP and Ub, confirming formation of the TEVDAP-Ub (FIG. 4b). Therefore, the substitution of the catalytic cysteine in TEV with DAP enables the creation of a protease that goes through the first step of the protease cycle: nucleophilic attack on the substrate carbonyl to form the first tetrahedral intermediate. This intermediate collapses, releasing the C-terminal fragment of the substrate and leaving the N-terminal fragment of the substrate covalently attached to the protease, through a stable amide bond that is not subject to hydrolysis. […]

CC(SCCOC(=O)NC[C@H](N)C(=O)O)c1cc2c(cc1[N+](=O)[O-])OCO2 (mixture of isomers) [Compound 6]
intracellular concentration [1]: approximately 2 mM
stable without decomposition on storage ([2]; dry sample, air-tight dark glass vials, cold, dry and dark environment): over 3 years
light and moisture sensitivity on handling ([2]; exposure to moist air): light sensitive and slightly hygroscopic

CC(=O)NCCSC(=O)[C@@H](NC(=O)[C@@H](C)OC(=O)[C@@H](NC(=O)CC(C)C)C(C)C)C(C)C (single isomer, unassigned) [deoxy-tetradepsipeptidyl-SNAC 8]
acyl-TEDAP conjugate formation yield [3]: ~70%

NC[C@H](N)C(=O)O (stereo in doubt) [Compound 1, 2,3-diaminopropionic acid]
pKa of the conjugate acid of the sidechain amine [4]: 9.4

N[C@@H](CNCc1ccccc1[N+](=O)[O-])C(=O)O [Compound 3]
suppression of amber codons in reporter genes [5]: did not function to suppress amber codons

CC(NC[C@H](N)C(=O)O)c1cc2c(cc1[N+](=O)[O-])OCO2 (some centres unmarked) [Compound 4]
suppression of amber codons in reporter genes [5]: did not function to suppress amber codons

CC(=O)NCCSC(=O)C(NC(=O)C(C)OC(=O)C(NC(=O)C(O)C(C)C)C(C)C)C(C)C [tetradepsipeptidyl-SNAC 7, HO-D-Hiv-D-Val-L-Lac-L-Val-SNAC]
valinomycin synthesis [6]: did not observe valinomycin synthesis
acyl-TEDAP conjugate formation yield [3]: > 60%
valinomycin production [7]: led to production of valinomycin

CC(C)[C@@H]1NC(=O)[C@H](C)OC(=O)[C@@H](C(C)C)NC(=O)[C@@H](C(C)C)OC(=O)[C@H](C(C)C)NC(=O)[C@H](C)OC(=O)[C@@H](C(C)C)NC(=O)[C@@H](C(C)C)OC(=O)[C@H](C(C)C)NC(=O)[C@H](C)OC(=O)[C@@H](C(C)C)NC(=O)[C@@H](C(C)C)OC1=O [valinomycin, reference compound]
acyl-TEDAP conjugate formation yield [3]: 65-100%

UBE2L3(C86DAP): UBE2L3 with DAP at position 86
E2-Ub complex formation [8]: higher molecular weight band could also be detected
redox sensitivity of complex with Ub [8]: redox insensitive

UBE2L3(wt): wild type UBE2L3, positive control
E2-Ub complex formation [8]: higher molecular weight band could be observed
redox sensitivity of complex with Ub [8]: redox sensitive

B1: TEVDAP: TEV protease with amino acid 1 (DAP) at position 151 (protein)
chain: GESLFKGPRDYNPISSTICHLTNESDGHTTSLYGIGFGPFIITNKHLFRRNNGTLLVQSLHGVFKVKNTTTLQQHLIDGRDMIIIRMPKDFPPFPQKLKFREPQREERICLVTTNFQTKSMSSMVSDTSCTFPSSDGIFWKHWIQTKDGQCGSPLVSTRDGFIVGIHSASNFTNTNNYFTSVPKNFMELLTNQEAQQWVSGWRLNADSVLWGGHKVFMSKPEEPFQPVKEATQLMN
outcome of incubation with Ub-tev-His6 [9]: formation of a new band

B2: wild-type TEV: wild-type tobacco etch virus protease (protein)
chain: GESLFKGPRDYNPISSTICHLTNESDGHTTSLYGIGFGPFIITNKHLFRRNNGTLLVQSLHGVFKVKNTTTLQQHLIDGRDMIIIRMPKDFPPFPQKLKFREPQREERICLVTTNFQTKSMSSMVSDTSCTFPSSDGIFWKHWIQTKDGQCGSPLVSTRDGFIVGIHSASNFTNTNNYFTSVPKNFMELLTNQEAQQWVSGWRLNADSVLWGGHKVFMSKPEEPFQPVKEATQLMN
outcome of incubation with Ub-tev-His6 [9]: cleaves Ub-tev-His6
